Test results from patent publication US9351486B2, “Combinations of derivatized saccharide surfactants and etheramine oxide surfactants as herbicide adjuvants” (Monsanto Technology LLC, priority 2008, dated 2016).

Assays:
Assay type in all cases: in vivo
[1] = tested on: VIOAR, Field violet (Viola arvensis Murr.); assay: Greenhouse herbicidal efficacy on VIOAR
Description: (§1) Spray compositions of the Examples, containing an exogenous chemical, such as glyphosate potassium salt, in addition to the excipient ingredients listed, were evaluated for herbicidal efficacy according to the following method.
(§2) The amount of exogenous chemical was selected to provide the desired rate in grams per hectare (g/ha) when applied in a spray volume of 93 l/ha. Several exogenous chemical rates were applied for each composition. Thus, except where otherwise indicated, when spray compositions were tested, the concentration of exogenous chemical varied in direct proportion to exogenous chemical rate, but the concentration of excipient ingredients was held constant across different exogenous chemical rates.
(§3) Concentrate compositions were tested by dilution, dissolution or dispersion in water to form spray compositions. In these spray compositions prepared from concentrates, the concentration of excipient ingredients varied with that of exogenous chemical.
(§4) The herbicidal effectiveness data set forth herein report “inhibition” as a percentage following a standard procedure in the art which reflects a visual assessment of plant mortality and growth reduction by comparison with untreated plants, made by technicians specially trained to make and record such observations. In all cases, a single technician makes all assessments of percent inhibition within any one experiment or trial. Such measurements are relied upon and regularly reported by Monsanto Company in the course of its herbicide business.
(§5) The efficacy of potassium glyphosate formulations containing an APG surfactant and an EAO surfactant in an APG:EAO weight ratio of 4:1 and a glyphosate a.e. to total surfactant weight ratio of about 2.9:1 were evaluated in greenhouse trials. Also evaluated were potassium glyphosate compositions containing either an alkylpolyglucoside surfactant (designated as “Surfactant L” and “Surfactant N”) or an alkoxylated etheramine oxide surfactant (designated as “Surfactant G”) wherein the weight ratio of glyphosate a.e. to surfactant was about 2.9:1. Finally, the efficacy of potassium glyphosate not containing a surfactant (K-GLY) and comparative compositions 139R8H and 294T6K were also evaluated. The efficacy of each formulation, surfactant and comparative composition was evaluated at application rates of 100, 200 and 400 g glyphosate a.e. per hectare.
(§6) The efficacy of potassium glyphosate formulations containing various ratios of APG surfactants to EAO surfactants were evaluated in greenhouse trials as compared to comparative compositions 139R8H and 276U4D. The efficacy of each formulation, surfactant and comparative composition was evaluated at application rates of 200, 400 and 600 g glyphosate a.e. per hectare and the results are reported in Table ET4A wherein APG:EAO is the weight ratio of APG surfactant to EAO surfactant and Gly:Surf is the weight ratio of glyphosate a.e. to total surfactant.
The efficacy of potassium glyphosate formulations containing Atplus 452 and EAO surfactants were evaluated in greenhouse trials. The efficacy of each formulation, surfactant and comparative composition was evaluated at application rates of 100, 200, 300 and 400 g glyphosate a.e. per hectare and the results are reported in Table ET5A wherein APG:EAO is the weight ratio of APG surfactant to EAO surfactant and Gly:Surf is the weight ratio of glyphosate a.e. to total surfactant.

[2] = tested on: SINAR, wild mustard (Sinapis arvensis L.); assay: Greenhouse herbicidal efficacy on SINAR
Description: as §1, §2, §3, §4, §5
(§7) The efficacy of potassium glyphosate formulations containing various APG surfactants and an EAO surfactant in an APG:EAO weight ratios and glyphosate a.e. to total surfactant weight ratios (Gly:Surf) as indicated in the tables below. Finally, the efficacy of comparative standard compositions 139R8H and 294T6K were also evaluated. The efficacy of each formulation, surfactant and comparative composition was evaluated at application rates of 100, 200 and 400 g glyphosate a.e. per hectare.
as §6

[3] = tested on: LOLMU, Italian ryegrass (Lolium multiflorum Lam.); assay: Greenhouse herbicidal efficacy on LOLMU; conditions: for Application rate required for 85% control, LOLMU: calculated from rates 100, 200 and 400 g a.e./ha; for Average % control, LOLMU: average for 100, 200 and 400 g a.e./ha application rates
Description: as §1, §2, §3, §4, §5, §7

[4] = tested on: MALSI, cheeseweed; assay: Greenhouse herbicidal efficacy on MALSI; conditions: Example ET9; average for 100, 200 and 400 g a.e./ha application rates
Description: as §1
The amount of exogenous chemical was selected to provide the desired rate in grams per hectare (g/ha) when applied in a spray volume of 93 l/ha. Several exogenous chemical rates were applied for each composition. […]
as §6, with “surfactant. For each plant species, efficacy results are reported as the average % control for the three application rates (Table ET4a) and the calculated application rate (g a.e./ha) that must be applied to achieve 85% control (Table ET4b).” for “surfactant.”

[5] = tested on: ABUTH, velvetleaf (Abutilon theophrasti Medik.); assay: Greenhouse herbicidal efficacy on ABUTH; conditions: for Average % control, ABUTH: average for 100, 200 and 400 g a.e./ha application rates
Description: as §1, §2, §3
(§8) The herbicidal effectiveness data set forth herein report “inhibition” as a percentage following a standard procedure in the art which reflects a visual assessment of plant mortality and growth reduction by comparison with untreated plants, made by technicians specially trained to make and record such observations. In all cases, a single technician makes all assessments of percent inhibition within any one experiment or trial. […]
(§9) The efficacy of formulations containing potassium glyphosate and an APG surfactant (formulation 179W2N) or an EAO surfactant (formulation 179R6U) in a weight percent ratio of glyphosate a.e. to surfactant of 4:1 was evaluated in greenhouse trials as compared to compositions 276U4D, 351L9P, 294T6K and K-GLY. The efficacy of each formulation, surfactant and comparative composition was evaluated at application rates of 100, 200 and 400 g glyphosate a.e. per hectare and the results are reported in Table ET8A wherein APG:EAO is the weight ratio of alkylpolyglucoside (APG) surfactant to alkoxylated amine oxide (EAO) surfactant and Gly:Surf is the weight ratio of glyphosate a.e. to total surfactant. […]

[6] = tested on: LOLMG, annual ryegrass; assay: Greenhouse herbicidal efficacy on LOLMG
Description: as §1, §2, §3, §8, §9

[7] = tested on: CHEAL, common lambsquarters (Chenopodium album L.); assay: Greenhouse herbicidal efficacy on CHEAL
Description: as §1, §2, §3, §4

[8] = Example ET1, calculated from rates 100, 200 and 400 g a.e./ha
[9] = Example ET1, greenhouse, average of the three application rates
[10] = Example ET3, average for 100, 200 and 400 g a.e./ha application rates
[11] = Example ET3, calculated from rates 100, 200 and 400 g a.e./ha
[12] = Example ET5, average for 100, 200, 300 and 400 g a.e./ha application rates
[13] = Example ET5, calculated from rates 100, 200, 300 and 400 g a.e./ha
[14] = Example ET6, average for 200, 400 and 600 g a.e./ha application rates
[15] = Example ET6, calculated from rates 200, 400 and 600 g a.e./ha
[16] = Example ET9, average for 100, 200 and 400 g a.e./ha application rates
[17] = Example ET2, calculated from rates 100, 200 and 400 g a.e./ha

Which results are given for `O=C(O)CNCP(=O)([O-])O.[K+]` [K-GLY, potassium glyphosate]?
Application rate required for 85% control, VIOAR [1, 8]: >400.0 g a.e./ha; Average % control for 100, 200 and 400 g a.e./ha application rates, VIOAR [1, 9]: 39.2%; Average % control, VIOAR [1, 10]: 27.5%; Application rate required for 85% control, VIOAR [1, 11]: >400.0 g a.e./ha; Average % control, VIOAR [1, 12]: 34.7%; Application rate required for 85% control, VIOAR [1, 13]: >400.0 g a.e./ha; VIOAR (ave. cntrl) [1, 14]: 31.7%; VIOAR (g a.e./ha for 85% control) [1, 15]: >600.0 g a.e./ha; Average % control, VIOAR [1, 16]: 36.7%; Application rate required for 85% control, SINAR [2, 8]: >400.0 g a.e./ha; Average % control for 100, 200 and 400 g a.e./ha application rates, SINAR [2, 9]: 67.5%; Average % control, SINAR ([2]; Example ET2, average for 100, 200 and 400 g a.e./ha application rates): 64.1%; Application rate required for 85% control, SINAR [2, 17]: >400.0 g a.e./ha; Average % control, SINAR [2, 12]: 72.5%; Application rate required for 85% control, SINAR [2, 13]: 366.7 g a.e./ha; SINAR 10 DAT (ave. Ctrl) ([2]; Example ET7, 10 DAT, average for 50, 100 and 300 g a.e./ha application rates): 74.6%; SINAR 10 DAT (g a.e./ha for 85% control) ([2]; Example ET7, 10 DAT, calculated from rates 50, 100 and 300 g a.e./ha): 227.3 g a.e./ha; Application rate required for 85% control, LOLMU ([3]; Example ET1): >400.0 g a.e./ha; Average % control for 100, 200 and 400 g a.e./ha application rates, LOLMU [3, 9]: 40.8%; Average % control, LOLMU ([3]; Example ET2): 58.1%; Application rate required for 85% control, LOLMU ([3]; Example ET2): >400.0 g a.e./ha; Average % control, LOLMU ([3]; Example ET3): 27.9%; Application rate required for 85% control, LOLMU ([3]; Example ET3): >400.0 g a.e./ha; LOLMU 23 DAT (ave. control) ([3]; Example ET7, 23 DAT, average for 50, 100 and 300 g a.e./ha application rates): 48.3%; LOLMU 23 DAT (g a.e./ha for 85% control) ([3]; Example ET7, 23 DAT, calculated from rates 50, 100 and 300 g a.e./ha): >300.0 g a.e./ha; Average % control, MALSI [4]: 22.8%; Average % control, ABUTH ([5]; Example ET2): 40.0%; Application rate required for 85% control, ABUTH [5, 17]: 400.0 g a.e./ha; Average % control, ABUTH ([5]; Example ET9): 27.2%; Average % control, LOLMG [6, 12]: 42.5%; Application rate required for 85% control, LOLMG [6, 13]: >400.0 g a.e./ha; Average % control, LOLMG [6, 16]: 37.8%; Average % control, CHEAL [7, 10]: 5.0%; Application rate required for 85% control, CHEAL [7, 11]: >400.0 g a.e./ha; CHEAL (ave. cntrl) [7, 14]: 33.3%; CHEAL (g a.e./ha for 85% control) [7, 15]: >600.0 g a.e./ha
